Source: patent US11136304B2, “Salts of a heterocyclic compound and crystalline forms, processes for preparing, therapeutic uses, and pharmaceutical compositions thereof” (Sunovion Pharmaceuticals Inc., priority 2019, dated 2021)
Counter-ions that a name gives are not always drawn.

Assay: Stability study (storage at 60° C. and 60° C. 75% RH, measured by HPLC)
Format: physicochemical
Parameters: Stability Study Results (HPLC): unit not given here
Details: for stability: stored at 60° C. and 60° C. 75% RH for 1 month, measured at 20 days and 1 month by HPLC
Experimental: Each sample was stored at 60° C. and 60° C. 75% RH for 1 month. Each sample was measured at 20 days and 1 month by HPLC. HPLC conditions are described below.
Column: Waters XSelect CSH C18, 4.6×150 mm, 3.5 μm
MPA: 50 mM HClO4 in water (pH=3)
MPB: MeOH/acetonitrile (9:1)

| Compound | Stability Study Results (HPLC) (1 month at 60° C.) | Stability Study Results (HPLC) (1 month at 60° C. 75% RH) | Stability Study Results (HPLC) (20 day at 60° C.) | Stability Study Results (HPLC) (20 days at 60° C. 75% RH) | Stability Study Results (HPLC) (Initial) | stability | stability (phosphate) |
| --- | --- | --- | --- | --- | --- | --- | --- |
| O=C(O)CC(O)(CC(=O)O)C(=O)O [Citric acid] | 99.16 | 97.73 | 99.10 | 98.34 | 99.08 | – | – |
| O=P(O)(O)O [Compound H3PO4] | 99.23 | 99.24 | 99.20 | 99.20 | 99.20 | – | – |
| CNC[C@@H]1OCCc2cccc(F)c21.O=C(O)/C=C/C(=O)O [Fumarate, (R)-1-(8-fluoroisochroman-1-yl)-N-methylmethanamine fumarate] | – | – | – | – | – | stable | – |
| O=C(O)/C=C/C(=O)O [Fumaric acid] | 99.60 | 99.64 | 99.54 | 99.67 | 99.48 | – | – |
| Cl [HCl] | 98.89 | 99.05 | 98.50 | 99.07 | 98.94 | – | – |
| CNC[C@@H]1OCCc2cccc(F)c21.Cl [Hydrochloride, (R)-1-(8-fluoroisochroman-1-yl)-N-methylmethanamine hydrochloride] | – | – | – | – | – | stable | – |
| CNC[C@@H]1OCCc2cccc(F)c21.O=C(O)C(O)C(O)C(=O)O [L-tartrate, (R)-1-(8-fluoroisochroman-1-yl)-N-methylmethanamine L-tartrate] | – | – | – | – | – | stable | – |
| CNC[C@@H]1OCCc2cccc(F)c21 [Phosphate, (R)-1-(8-fluoroisochroman-1-yl)-N-methylmethanamine phosphate] | – | – | – | – | – | – | stable |
| CNC[C@@H]1OCCc2cccc(F)c21.O=C(O)CC(O)(CC(=O)O)C(=O)O [citrate, (R)-1-(8-fluoroisochroman-1-yl)-N-methylmethanamine citrate] | – | – | – | – | – | stable | – |
| CNC[C@@H]1OCCc2cccc(F)c21 [freebase (amorphous) of Compound 1, (R)-1-(8-fluoroisochroman-1-yl)-N-methylmethanamine] | – | – | – | – | – | unstable | – |
| L-Tartaric | 99.14 | 99.23 | 99.13 | 99.23 | 99.10 | – | – |
